What was measured:
ELOVL2 promoter [1] = assay: ELOVL2 methylation by MeDIP in mouse retinas after intraocular injection; type: in vivo; conditions: mouse retina, 1 μL of 2 μM intraocular every other week for 2 months from age 10 months, vs PBS eye; MeDIP (FIG. 5A)
Procedure: (§1) Finally, it was investigated whether the aging characteristics in mouse eyes could be reverted by DNA demethylation, including the ELOVL2 promoter. To do that, each mouse was injected with 1 μL of 2 μM 5-Aza-dc in one eye and 1 μL of PBS in the other eye, every other week over a period of 2 months starting at age of 10 months. It was found, using the MeDIP method, that methylation of the ELOVL2 promoter decreased after treatment (FIG. 5A).
(§2) DNA and RNA were isolated from human fibroblasts and mouse tissues with TRIzol (Ambion) according to manufacturer's instructions. RNA was converted to cDNA with iScript cDNA Synthesis Kit (Bio-Rad). qPCR was performed using SsoAdvanced Universal SYBR Green Supermix (Bio-Rad).
Methylated DNA Immunoprecipitation (MeDIP) was performed by shearing 1 μg DNA by Bioruptor (Diagenode) for 8 cycles on the high setting, each cycle consisting of 30 seconds on and 30 seconds off. Sheared DNA was denatured, incubated with 1 μg 5 mC antibody MABE146 (Millipore) for 2 hours, then with SureBeads protein G beads (Bio-Rad) for 1 hour. After washing, DNA was purified with QIAquick PCR Purification Kit (Qiagen). qPCR was then performed as above.
All animal procedures were conducted with the approval of the Institutional Animal Care Committee at the University of California, San Diego. C57BL/6N mouse zygotes were injected with CRISPR-Cas9 constructs. […]

patient with dry AMD [2] = assay: Human clinical use example: tolerability of intravitreal decitabine; type: in vivo
Procedure: (§3) A person with bilateral, dry age-related macular degeneration (AMD) is seen in an ophthalmology clinic. They are otherwise healthy. They consent to an experimental study comparing demethylation therapy verses control. At baseline both eyes show a similar level of AMD as evidenced by clinical assessments for visual acuity, size of geographic atrophy as measured by autofluorescence, optical coherence tomography, and scotopic response on electroretinography. The patient is treated with 100 uL of decitabine (20 uM) formulated as a sterile, isotonic, pH buffered solution administered by intravitreal injection in their left eye (active treatment). They receive 100 ul of the same sterile, isotonic, pH buffered solution but without decitabine administered by intravitreal injection in their right eye (control treatment). Immediately following the administration of the active and control treatments, a sample of intravitreal fluid is withdrawn from each eye for baseline measurements of ELOVL2 expression and methylation level. It is observed that ELOVL2 is hypermethylated to a similar extent in both eyes. The levels of ELOVL2 expression are also similar and a low level of expression is observed in both eyes. […]
(§4) A person with dry age-related macular degeneration (AMD) with Geographic Atrophy is seen in an ophthalmology clinic. Their vision as assessed by scotopic response is declining. […]

mouse eyes = assay: Scotopic ERG response in mouse eyes after intraocular injection; type: in vivo; conditions: 1 μL of 2 μM intraocular every other week for 2 months from age 10 months, vs PBS eye (FIG. 5C, FIG. 13)
Procedure: as §1
(§5) All animal procedures were conducted with the approval of the Institutional Animal Care Committee at the University of California, San Diego. C57BL/6N mouse zygotes were injected with CRISPR-Cas9 constructs. Oligos were injected into the cytoplasm of the zygotes at the pronuclei stage. Mice were housed on static racks in a conventional animal facility, and were fed ad libitum with Teklad Global 2020X diet. For the 5-Aza-dc injection study, mice were anesthetized by intraperitoneal injection of ketamine/xylazine (100 mg/kg and 10 mg/kg, respectively), and given an analgesic eye drop of Proparacaine (0.5%, Bausch & Lomb). Animals were intraocularly injected with 1 μL of PBS in one eye, and 1 μL of 2 μM 5-Aza-dc dissolved in PBS in the contralateral eye, every other week over a period of 2 months.
Electroretinograms (ERGs) were performed following a previously reported protocol. […]

ELOVL2 methylation = assay: Human clinical use example: ELOVL2 methylation in intravitreal fluid after intravitreal decitabine; type: in vivo
Procedure: as §3, §4

ELOVL2 expression [3] = assay: ELOVL2 expression by qRT-PCR in 5-Aza-dc treated WI-38 cells; type: cell-based, human; conditions: WI-38 fibroblasts, 2 μM for 2 days followed by 5 days without the compound; qRT-PCR vs untreated control (FIG. 2B)
Procedure: (§6) The effect of the ELOVL2 promoter methylation level on ELOVL2 expression was tested. WI-38 fibroblasts were treated with 5-Aza-2′-deoxycytidine (5-Aza-dc), a cytidine analog that inhibits DNA methyltransferase. The cells were treated for 2 days with 2 μM 5-Aza-dc followed by 5 days of culture without the compound. At the end of experiment, the expression of ELOVL2 was measured by qRT-PCR.
(§7) WI-38 and IMR-90 human fibroblasts were cultured in EMEM (ATCC) supplemented with 10% fetal bovine serum (Omega) and 1% penicillin/streptomycin (Gibco), and kept in a humidified incubator at 5% CO2 and 37° C. Confluence was calculated via ImageJ imaging software, including 3 fields of view per sample (10×). Upon confluence, cells were split and seeded at a 1:3 ratio. Population doublings (PD) were calculated by cell count. Knockdown lentivirus was generated using MISSION shRNA (Sigma) according to the manufacturer's instructions. 5-Aza-2′-deoxycitidine was purchased from TSZ Chem (CAS #2353-33-5), and dissolved in cell culture medium at a concentration of 2 μM. Cells were treated for a period of 48 hours. The medium was then replaced with regular cell culture medium, and the cells were cultured for 5 more days.
(§8) DNA and RNA were isolated from human fibroblasts and mouse tissues with TRIzol (Ambion) according to manufacturer's instructions. […]

patient with dry AMD [4] = assay: Human clinical use example: clinical assessments (scotopic response, geographic atrophy) after intravitreal decitabine; type: in vivo
Procedure: A person with bilateral, dry age-related macular degeneration (AMD) is seen in an ophthalmology clinic. They are otherwise healthy. They consent to an experimental study comparing demethylation therapy verses control. At baseline both eyes show a similar level of AMD as evidenced by clinical assessments for visual acuity, size of geographic atrophy as measured by autofluorescence, optical coherence tomography, and scotopic response on electroretinography. The patient is treated with 100 uL of decitabine (20 uM) formulated as a sterile, isotonic, pH buffered solution administered by intravitreal injection in their left eye (active treatment). They receive 100 ul of the same sterile, isotonic, pH buffered solution but without decitabine administered by intravitreal injection in their right eye (control treatment). Immediately following the administration of the active and control treatments, a sample of intravitreal fluid is withdrawn from each eye for baseline measurements of ELOVL2 expression and methylation level. It is observed that ELOVL2 is hypermethylated to a similar extent in both eyes. The levels of ELOVL2 expression are also similar and a low level of expression is observed in both eyes. Both the active and control treatments are continued in the left and right eyes respectively with administrations every other week for 3 months. […] Immediately following the last administration, samples of intravitreal fluid are obtained from both eyes for measurement of ELOVL2 gene expression and methylation. The same clinical assessments for geographic atrophy performed at baseline are repeated for each eye. Significant differences are observed between the eye treated with decitabine compared to control. In the decitabine treated eye, ELOVL2 methylation is reduced by almost 30% and ELOVL2 gene expression is increased also by about 30% compared to baseline. Also, the scotopic response is increased by about 30% over baseline. […] In marked contrast, there is no observable change in the control eye in any of the other parameters. Gene methylation and gene expression and scotopic response values remain similar to those observed at baseline values. The patient returns to the clinic for a follow up visit at 6 months. […] Scotopic response in the control eye remains similar to the baseline value.
A person with dry age-related macular degeneration (AMD) with Geographic Atrophy is seen in an ophthalmology clinic. Their vision as assessed by scotopic response is declining. […] They are otherwise healthy. The patient is treated with 100 uL of decitabine (15 uM) formulated as a sterile, isotonic, pH buffered solution administered by intravitreal injection. […] The decitabine treatment is continued with the same dose administered every 5 weeks over a 12 month period. […] Following the last decitabine administration a sample of vitreous fluid is obtained and tested for ELOVL2 gene methylation and ELOVL2 gene expression. The studies reveal ELOVL2 methylation has decreased by almost 60% (from baseline) and ELOVL2 gene expression is increased by about 50% (over the baseline value).

WI-38 cells = assay: Senescence-associated β-galactosidase staining of 5-Aza-dc treated WI-38 cells; type: cell-based, human; conditions: WI-38 fibroblasts, 2 μM; SA-β-Gal staining (FIG. 2C)
Procedure: as §6
as §7, with “5-Aza-2′-deoxycitidine was purchased from TSZ Chem (CAS #2353-33-5), and dissolved in cell culture medium at a concentration of 2 μM. Cells were treated for a period of 48 hours. The medium was then replaced with regular cell culture medium, and the cells were cultured for 5 more days.” left out
The SA-β-gal activity in cultured cells was determined using the Senescence β-Galactosidase Staining Kit (Cell Signaling Technology), according to the manufacturer's instructions. Cells were stained with DAPI afterwards, and percentages of cells that stained positive were calculated with imaging software (Keyence), including 3 fields of view (10×).

ELOVL2 promoter [5] = assay: ELOVL2 promoter methylation by MeDIP followed by qPCR in 5-Aza-dc treated WI-38 cells; type: cell-based, human; conditions: WI-38 fibroblasts, 2 μM for 2 days followed by 5 days of culture without the compound; MeDIP-qPCR vs untreated control (FIG. 2A)
Procedure: as §6, §7, §8

ELOVL2 gene expression = assay: Human clinical use example: ELOVL2 gene expression in intravitreal fluid after intravitreal decitabine; type: in vivo
Procedure: as §3, §4

ELOVL2 expression [6] = assay: ELOVL2 expression by qPCR in mouse retinas after intraocular injection; type: in vivo; conditions: mouse retina, 1 μL of 2 μM intraocular every other week for 2 months from age 10 months, vs PBS eye; qPCR (FIG. 5B)
Procedure: as §1, §2
as §5, with “Animals were intraocularly injected with 1 μL of PBS in one eye, and 1 μL of 2 μM 5-Aza-dc dissolved in PBS in the contralateral eye, every other week over a period of 2 months.” left out

[7] = Geographic Atrophy patient, 100 uL of 15 uM intravitreal every 5 weeks over 12 months
[8] = dry AMD patient, 100 uL of 20 uM intravitreal every other week for 3 months

Nc1ncn([C@H]2C[C@H](O)[C@@H](CO)O2)c(=O)n1 [5-Aza-dc, 5-Aza-2′-deoxycytidine]
methylation of the ELOVL2 promoter (ELOVL2 promoter [1]): decreased | tolerability (patient with dry AMD [2]; [7]): well tolerated with no adverse effects observed | tolerability (patient with dry AMD [2]; [8]): equally well tolerated | scotopic response (ERG) (mouse eyes): improved | ELOVL2 methylation decreased from baseline (ELOVL2 methylation; [7]): ~60% | ELOVL2 methylation reduced compared to baseline (ELOVL2 methylation; [8]): about 30% | ELOVL2 expression (ELOVL2 expression [3]): upregulated | geographic atrophy growth by fundus autofluorescence (patient with dry AMD [4]; [7]): no geographic atrophy growth | scotopic response increased over baseline (patient with dry AMD [4]; [7]): about 30% | scotopic response improvement over baseline (patient with dry AMD [4]; dry AMD patient, 20 uM bi-weekly for 3 months, follow up visit at 6 months): 20%-30% | growth of geographic atrophy by fundus autofluorescence compared to baseline (patient with dry AMD [4]; [8]): no progression | scotopic response increased over baseline (patient with dry AMD [4]; dry AMD patient, 100 uL of 20 uM intravitreal every other week for 3 months, after last administration): about 30% | percentage of senescent cells in culture (WI-38 cells): lower percentage of senescent cells | ELOVL2 promoter methylation (ELOVL2 promoter [5]): reduced | ELOVL2 gene expression increased over the baseline value (ELOVL2 gene expression; [7]): about 50% | ELOVL2 gene expression increased compared to baseline (ELOVL2 gene expression; [8]): about 30% | ELOVL2 expression (ELOVL2 expression [6]): upregulated
